Test results from ChEMBL document CHEMBL1201862, “PubChem BioAssay data set” (2004).
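Each compound was tested at five concentrations against cells in 96-well plates for 48 hours. Abbreviation: GI50, concentration required for 50% inhibition of growth.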 Calls of active or inactive are those of the source. No stated cut-off is given here; in the data, active = GI50 up to about 1.1 µM and inactive = higher.

Legend:
Assay in all cases: growth of human tumour cells (NCI), 48 h
786-0 = test system: 786-0
A549 = test system: A549
ACHN = test system: ACHN
COLO 205 = test system: COLO 205
HOP-62 = test system: HOP-62
HOP-92 = test system: HOP-92
Malme-3M = test system: Malme-3M
SK-MEL-2 = test system: SK-MEL-2
SNB-19 = test system: SNB-19
SR = test system: SR
SW-620 = test system: SW-620
U-251 = test system: U-251
UACC-257 = test system: UACC-257
UO-31 = test system: UO-31
A498 = test system: A498
CAKI-1 = test system: CAKI-1

Compound | GI50 (786-0) | GI50 (A549) | GI50 (ACHN) | GI50 (COLO 205) | GI50 (HOP-62) | GI50 (HOP-92) | GI50 (Malme-3M) | GI50 (SK-MEL-2) | GI50 (SNB-19) | GI50 (SR) | GI50 (SW-620) | GI50 (U-251) | GI50 (UACC-257) | GI50 (UO-31) | GI50 (A498) | GI50 (CAKI-1)
CCC(CC)NC1=C(NC(C)=O)C(=O)c2ccccc2C1=O | > 50 µM (inactive) | > 50 µM (inactive) | > 50 µM (inactive) | > 50 µM (inactive) | > 50 µM (inactive) | 0.339 µM (active) | 45.4 µM (inactive) | > 50 µM (inactive) | > 50 µM (inactive) | > 50 µM (inactive) | > 50 µM (inactive) | > 50 µM (inactive) | > 50 µM (inactive) | > 50 µM (inactive) |  | 
C=CC1(C)CCC(C(C)C(=O)C(C=C(C)C)OC(C)=O)C12C(=O)Oc1ccccc1C2=O (stereo not drawn) | 84.1 µM (inactive) | 35.7 µM (inactive) | 51.5 µM (inactive) | 29.4 µM (inactive) | 35.2 µM (inactive) | 40.2 µM (inactive) | 48.5 µM (inactive) | 32.7 µM (inactive) | > 100 µM (inactive) | 33.6 µM (inactive) | 63.8 µM (inactive) | 38 µM (inactive) | 35 µM (inactive) | 34.4 µM (inactive) |  | 
CCC1(CN(C)C)CC/C(=C\c2ccc3c(c2)OCO3)C1=O (stereo not drawn) | > 100 µM (inactive) | > 100 µM (inactive) | > 100 µM (inactive) | > 100 µM (inactive) | > 100 µM (inactive) | > 100 µM (inactive) | > 100 µM (inactive) | > 100 µM (inactive) | > 100 µM (inactive) |  | > 100 µM (inactive) | > 100 µM (inactive) | > 100 µM (inactive) | 91.8 µM (inactive) | > 100 µM (inactive) | > 100 µM (inactive)
COC(=O)C1=C(C)N(NC(=O)Nc2ccccc2)C2(N)N(NC(=O)Nc3ccccc3)C(C)=C(C(=O)OC)C12C(=O)OC (stereo not drawn) | 66.7 µM (inactive) | > 100 µM (inactive) | 98.2 µM (inactive) | 34.7 µM (inactive) |  | > 100 µM (inactive) | 84.5 µM (inactive) | 36 µM (inactive) |  |  | 63.4 µM (inactive) | 43.3 µM (inactive) | 16.4 µM (inactive) | > 100 µM (inactive) | 59.6 µM (inactive) | 23.7 µM (inactive)
Oc1nc(CC(O)c2ccc(Cl)c(Cl)c2)cc(-c2ccccc2)n1 (stereo not drawn) | > 100 µM (inactive) | 27.1 µM (inactive) | > 100 µM (inactive) | 17.3 µM (inactive) | > 100 µM (inactive) | 82.8 µM (inactive) | 46.8 µM (inactive) | 26.1 µM (inactive) | 67.9 µM (inactive) |  | > 100 µM (inactive) | > 100 µM (inactive) | 36.1 µM (inactive) | 26.2 µM (inactive) | 32.7 µM (inactive) | 55.6 µM (inactive)
O=C1NC(=O)C(C(=O)C(=O)Nc2cc(Cl)ccc2Cl)C(=O)N1 | > 100 µM (inactive) | > 100 µM (inactive) | > 100 µM (inactive) | > 100 µM (inactive) | > 100 µM (inactive) | 91.8 µM (inactive) | > 100 µM (inactive) | > 100 µM (inactive) | > 100 µM (inactive) |  | > 100 µM (inactive) | > 100 µM (inactive) | > 100 µM (inactive) | > 100 µM (inactive) | > 100 µM (inactive) | 
COc1ccc(NC(=O)CC(=O)N/N=C/c2ccc(N(CCC#N)S(C)(=O)=O)cc2)cc1 | > 100 µM (inactive) | > 100 µM (inactive) | > 100 µM (inactive) | > 100 µM (inactive) | > 100 µM (inactive) |  | > 100 µM (inactive) | > 100 µM (inactive) |  | 3.33 µM (inactive) | > 100 µM (inactive) | > 100 µM (inactive) |  | > 100 µM (inactive) | > 100 µM (inactive) | > 100 µM (inactive)
O=C1c2ccccc2C(=O)N1CCN(CCN1C(=O)c2ccccc2C1=O)Cn1cccn1 | > 100 µM (inactive) | > 100 µM (inactive) | > 100 µM (inactive) | > 100 µM (inactive) | > 100 µM (inactive) | > 100 µM (inactive) |  | > 100 µM (inactive) | > 100 µM (inactive) |  | 41.8 µM (inactive) | > 100 µM (inactive) | > 100 µM (inactive) | > 100 µM (inactive) | > 100 µM (inactive) | > 100 µM (inactive)
CC1C=C[C@H](Sc2ccccc2)CC[C@@]1(C)O (stereo partly drawn) | > 100 µM (inactive) | > 100 µM (inactive) | > 100 µM (inactive) | > 100 µM (inactive) | > 100 µM (inactive) | 40.5 µM (inactive) | > 100 µM (inactive) | > 100 µM (inactive) | 89.9 µM (inactive) |  | > 100 µM (inactive) | > 100 µM (inactive) | > 100 µM (inactive) | 30.1 µM (inactive) | > 100 µM (inactive) | > 100 µM (inactive)
CC(=O)O[C@]12CCCCC1C1(O)C(O)CCCC[C@H]12 (stereo partly drawn) | > 100 µM (inactive) | > 100 µM (inactive) | > 100 µM (inactive) | > 100 µM (inactive) | > 100 µM (inactive) |  | > 100 µM (inactive) | > 100 µM (inactive) | > 100 µM (inactive) | > 100 µM (inactive) | > 100 µM (inactive) | > 100 µM (inactive) | > 100 µM (inactive) | > 100 µM (inactive) |  | 
Cc1ccc(S(=O)(=O)NC2(C=O)CCCC3CCCCC32)cc1 (stereo not drawn) | > 100 µM (inactive) | > 100 µM (inactive) | > 100 µM (inactive) | > 100 µM (inactive) | > 100 µM (inactive) |  | > 100 µM (inactive) | > 100 µM (inactive) | > 100 µM (inactive) | > 100 µM (inactive) | > 100 µM (inactive) | > 100 µM (inactive) | > 100 µM (inactive) | > 100 µM (inactive) | > 100 µM (inactive) | > 100 µM (inactive)
CC1OC(=O)C(O)=C1O (stereo not drawn) | > 100 µM (inactive) | > 100 µM (inactive) | > 100 µM (inactive) | > 100 µM (inactive) | > 100 µM (inactive) | > 100 µM (inactive) | > 100 µM (inactive) | > 100 µM (inactive) | > 100 µM (inactive) | > 100 µM (inactive) | > 100 µM (inactive) | > 100 µM (inactive) | > 100 µM (inactive) | > 100 µM (inactive) |  | > 100 µM (inactive)
Cc1ccc(C2[C@H]3C(=O)N(c4ccc(Cc5ccc(N6C(=O)[C@@H]7ON(c8ccccc8)C(c8ccc(C)cc8)[C@@H]7C6=O)cc5)cc4)C(=O)[C@H]3ON2c2ccccc2)cc1 (stereo partly drawn) | > 100 µM (inactive) | > 100 µM (inactive) | > 100 µM (inactive) | > 100 µM (inactive) | > 100 µM (inactive) | > 100 µM (inactive) | > 100 µM (inactive) | > 100 µM (inactive) |  |  | > 100 µM (inactive) | > 100 µM (inactive) | > 100 µM (inactive) | > 100 µM (inactive) | > 100 µM (inactive) | > 100 µM (inactive)
CCOC(=O)/C(=C/c1ccc(N(C)C)cc1)N(CC)CC | > 100 µM (inactive) | 48.1 µM (inactive) | 76.2 µM (inactive) | > 100 µM (inactive) | > 100 µM (inactive) | > 100 µM (inactive) | > 100 µM (inactive) | 58.2 µM (inactive) | > 100 µM (inactive) | 48.6 µM (inactive) | 44 µM (inactive) | > 100 µM (inactive) | 35.8 µM (inactive) | 68.5 µM (inactive) |  | > 100 µM (inactive)
COC(=O)c1ccc(/C=C/S(=O)(=O)c2ccccc2)cc1 | > 100 µM (inactive) | > 100 µM (inactive) | > 100 µM (inactive) | > 100 µM (inactive) | > 100 µM (inactive) | > 100 µM (inactive) | > 100 µM (inactive) | > 100 µM (inactive) | > 100 µM (inactive) |  | > 100 µM (inactive) | > 100 µM (inactive) | > 100 µM (inactive) | > 100 µM (inactive) | > 100 µM (inactive) | > 100 µM (inactive)
COC(=O)c1ccc2n[se]nc2c1 | > 100 µM (inactive) | > 100 µM (inactive) | > 100 µM (inactive) |  | > 100 µM (inactive) |  | > 100 µM (inactive) | > 100 µM (inactive) | > 100 µM (inactive) | > 100 µM (inactive) | > 100 µM (inactive) | > 100 µM (inactive) | > 100 µM (inactive) | > 100 µM (inactive) | > 100 µM (inactive) | > 100 µM (inactive)
C=CCCC(C)N(C(=O)OC(C)(C)C)S(=O)(=O)c1ccc(C)cc1 (stereo not drawn) | > 100 µM (inactive) | > 100 µM (inactive) | > 100 µM (inactive) | > 100 µM (inactive) | > 100 µM (inactive) | 40.2 µM (inactive) | > 100 µM (inactive) | > 100 µM (inactive) | > 100 µM (inactive) | > 100 µM (inactive) | > 100 µM (inactive) | > 100 µM (inactive) | > 100 µM (inactive) | > 100 µM (inactive) |  | > 100 µM (inactive)
CC(=O)OC12C=CC(=O)N1c1ccccc1C(=O)O2 (stereo not drawn) | > 100 µM (inactive) | > 100 µM (inactive) | > 100 µM (inactive) | > 100 µM (inactive) | > 100 µM (inactive) | > 100 µM (inactive) | 0.962 µM (active) | > 100 µM (inactive) | > 100 µM (inactive) | > 100 µM (inactive) | > 100 µM (inactive) | > 100 µM (inactive) | > 100 µM (inactive) | > 100 µM (inactive) |  | > 100 µM (inactive)
O=C1C(=O)C2(CC1S(=O)(=O)c1ccccc1)c1ccccc1-c1ccccc12 (stereo not drawn) | 26.6 µM (inactive) | 24.7 µM (inactive) | 28.6 µM (inactive) | 12.7 µM (inactive) | 21.1 µM (inactive) |  | > 10 µM (inactive) | 18.1 µM (inactive) | 20.6 µM (inactive) | 24 µM (inactive) | 34.6 µM (inactive) | 18.6 µM (inactive) | 17.8 µM (inactive) | 19.7 µM (inactive) | 19.1 µM (inactive) | 29 µM (inactive)
